Data on 7 compounds can be found in paper PMC8894927, “Oxylipin signaling in salt-stressed soybean is modulated by ligand-dependent interaction of Class II acyl-CoA-binding proteins with lipoxygenase” (The Plant Cell, 2021).

The target in experiment [1] is (His)6-GmACBP4.1_33–354. Nature of the experiment: Isothermal titration calorimetry of acyl-CoA binding (WT protein). As to conditions: ITC at 25°C; 15 μM protein titrated with 200 μM acyl-CoA; mean ± SD, three experiments; read-out: KD, dissociation constant. Further details: species or system soybean. The protocol:
ITC was conducted with a MicroCal iTC200 system (GE Healthcare) at 25°C in 10 mM sodium phosphate (pH 7) by 20 injections of 1.8-μL acyl-CoAs (200 μM; Avanti Polar Lipids Inc., Alabaster, AL, USA) into the sample cell with 15 μM purified (His)6-GmACBP4.1. Each injection lasted 4 s at 150-s intervals with a stirring speed of 1,000 rpm. Nonspecific heat effects were estimated and corrected after saturation. The baseline was adjusted, and the data were fitted into a single-site binding model using the Origin version 7.0 software (OriginLab).
Supplemental Table 1. Binding constants and thermodynamic parameters for (His)6-GmACBP4.133–354 interaction with acyl-CoAs. (Supports Figure 5A) […]
Isothermal titration calorimetry analysis was performed by titration of 250 μL of 15 μM (His)6-GmACBP4.133–354 with […]
from three independent experiments. n, stoichiometry (number of ligand sites per protein); KD, dissociation constant; ∆H, enthalpy change; −T∆S, entropy change; ∆G, Gibbs free energy.

The test system of experiment [2] is GmACBP4.1_33–354 interaction with VLXB:StrepII. Nature of the experiment: Strep-Tactin pull-down assay with supplemented acyl-CoAs. In kind it is binding, soybean.
Experiment [3] relates to GmACBP4.1_33–354 interaction with GmPLDα1:StrepII. The description is as above. Type of experiment: binding, soybean. As to conditions: acyl-CoA 12.5–100 μM, versus control without acyl-CoA. From the text:
Figure 6 Specific acyl-CoA species facilitate GmACBP4 interaction with VLXB and GmPLDα1. A, Strep-Tactin pull-down assays. […] (His)6-GmACBP4.1_33–354 were detected in eluates by immunoblotting using anti-ACBP3 antibodies. […] Input lanes represent 1% protein. Arrowheads indicate target bands of 40-kD (His)6-GmACBP4.1_33–354 (apparent: 50 kD). The bound protein fraction was quantified densitometrically. […] B–C, Strep-Tactin pull-down assays with supplemented acyl-CoAs. […] Input lanes represent 5% proteins in (B) or 10% proteins in (C). Arrowheads indicate target bands of 40-kD (His)6-GmACBP4.1_33–354 (apparent: 50kD).
Strep-Tactin pull-down assays were performed using Strep-Tactin XT resins (IBA) following the manufacturer’s instructions. Briefly, 5 μL of resins with/without prebound VLXB:StrepII or GmPLDα1:StrepII (0.5 μM) were agitated with GmACBP4.1_33–354 (0.5 μM) and acyl-CoAs (0, 12.5, 25, 50, and 100 μM) in Buffer W containing 0.1 M Tris–HCl (pH 7), 0.15 M NaCl, 1 mM EDTA and 0.05% (w/v) Triton X-100 at 4°C for 2 h. After three washes in Buffer W, bound proteins were eluted in Buffer W with 50 mM biotin, and analyzed by immunoblotting using anti-ACBP3.1 antibodies.

A further experiment deals with AtACBP1. Set-up: method as in Xue et al., 2014. As to conditions: ref Xue et al., 2014; cited from earlier work.
Experiment [4] relates to (His)6-GmACBP4.1_33–354. The experiment can be described thus: Protein–lipid overlay assay. As to conditions: commercial strips and PA-spotted nitrocellulose strips; 0.5 μg mL−1 protein. In kind it is binding, soybean.
In experiment [5] the test system is (His)6-GmACBP4.1_33–354. Nature of the experiment: Liposome association assay for PA binding. Set-up: species or system soybean. As to conditions: PA:di-16:0-PC liposomes, 0–100% (w/w) PA.
The mark [6] stands for this setting: acyl-CoA 12.5–100 μM, versus control without acyl-CoA.

Several values for one entry are separate records, joined by “and”; a condition that tells them apart may be missing. Identical values can stand only once.

Take `CCCCCCCCCCCCCCCC(=O)SCCNC(=O)CCNC(=O)[C@H](O)C(C)(C)COP(=O)(O)OP(=O)(O)OC[C@H]1O[C@@H](n2cnc3c(N)ncnc32)[C@H](O)[C@@H]1OP(=O)(O)O` [C16:0-CoA]: at (His)6-GmACBP4.1_33–354 [1], the Kd amounted to 800 ± 100 nM. Also, the “increase in WT binding with VLXB:StrepII” value in experiment [2] (setting [6]) was “negligible”. Also, in experiment [3], the “increase in WT binding with GmPLDα1:StrepII” value is recorded as “up to nine-fold”.
Consider `CCCCCCCC/C=C\CCCCCCCC(=O)SCCNC(=O)CCNC(=O)[C@H](O)C(C)(C)COP(=O)(O)OP(=O)(O)OC[C@H]1O[C@@H](n2cnc3c(N)ncnc32)[C@H](O)[C@@H]1OP(=O)(O)O` [C18:1-CoA], for which, at (His)6-GmACBP4.1_33–354 [1], the Kd was 680 ± 80 nM. Further, in experiment [2] (setting [6]), the “increase in WT binding with VLXB:StrepII” value is given as “negligible”. In addition, the “increase in WT binding with GmPLDα1:StrepII” value in experiment [3] was “up to nine-fold”.
For the compound `CC/C=C\C/C=C\C/C=C\CCCCCCCC(=O)SCCNC(=O)CCNC(=O)[C@H](O)C(C)(C)COP(=O)(O)OP(=O)(O)OC[C@H]1O[C@@H](n2cnc3c(N)ncnc32)[C@H](O)[C@@H]1OP(=O)(O)O` [C18:3-CoA, linolenoyl-CoA], the equilibrium dissociation constant (Kd) is 1170 nM and 900 to 1200 nM on (His)6-GmACBP4.1_33–354 [1]; 400 to 800 nM on AtACBP1. In experiment [2] (100 µM acyl-CoA), the “increase in WT binding with VLXB:StrepII” value was “nine-fold”. Also, the “increase in WT binding with GmPLDα1:StrepII” value in experiment [3] is recorded as “did not influence”.
As to `CCCCCCCCCCCCCC(=O)OC[C@H](COP(=O)(O)O)OC(=O)CCCCCCCCCCCCC` [di-14:0-PA], in the experiment on (His)6-GmACBP4.1_33–354 [4], the “binding on lipid filter strips” value is “lower affinity”. In addition, the “descending order of affinity to the WT (liposome association)” value (“descending order of affinity to the WT” below) with (His)6-GmACBP4.1_33–354 [5] is “di-16:0-PA ≈ di-18:1-PA > di-18:0-PA > di-14:0-PA”.
For the compound `CCCCCCCCCCCCCCCC(=O)OC[C@H](COP(=O)([O-])OCC[N+](C)(C)C)OC(=O)CCCCCCCCCCCCCCC` [di-16:0-phosphatidylcholine], the “binding on lipid filter strips” value in the experiment on (His)6-GmACBP4.1_33–354 [4] was “did not interact”.
On to `CCCCCCCCCCCCCCCCCC(=O)OC[C@H](COP(=O)(O)O)OC(=O)CCCCCCCCCCCCCCCCC` [di-18:0-PA], for which the “binding on lipid filter strips” value in the experiment on (His)6-GmACBP4.1_33–354 [4] was “lower affinity”. The “descending order of affinity to the WT” value in the experiment on (His)6-GmACBP4.1_33–354 [5] is on record as “di-16:0-PA ≈ di-18:1-PA > di-18:0-PA > di-14:0-PA”.
`CCCCCCCCC=CCCCCCCCC(=O)OCC(COP(=O)(O)O)OC(=O)CCCCCCCC=CCCCCCCCC` (stereo not shown) [di-18:1-PA]: the “descending order of affinity to the WT” value in the experiment with (His)6-GmACBP4.1_33–354 [5] was “di-16:0-PA ≈ di-18:1-PA > di-18:0-PA > di-14:0-PA”.
